One assay has as its target CDK2/Cyclin E1 (Homo sapiens, UniProt P24941). Description: CDK2/Cyclin E1 Biochemical Assay (TR-FRET), 0.060 mM ATP. Particulars: 0.15 μM Rb (Ser780)-biotin substrate, pH7.0, 60 min preincubation, 120 min reaction, room temperature. As to the method: (§1) CDK2/Cyclin E1 and CDK1/Cyclin B1 Biochemical Assays
(§2) Compounds disclosed herein were tested for inhibition of CDK2/Cyclin E1 or CDK1/Cyclin B1 kinase in an assay based on the time-resolved fluorescence-resonance energy transfer (TR-FRET) methodology. The assay was carried out in 384-well low volume black plates in a reaction mixture containing CDK2/Cyclin E1 or CDK1/Cyclin B1, 0.060 mM ATP for CDK2/Cyclin E1 or 0.015 mM ATP for CDK1/Cyclin B1, 0.15 μM Rb (Ser780)-biotin substrate and 0-10 μM compound in buffer containing 50 mM HEPES pH7.0, 0.02% NaN3, 0.01% BSA, 0.1 mM Orthovanadate, 50 mM MgCl2, 1 mM DTT and 0.005% Tween-20. The kinase was incubated with compound for 60 minutes at room temperature and the reaction was initiated by the addition of ATP and Rb (Ser780)-biotin substrate. After reaction at room temperature for 120 minutes, an equal volume of stop/detection solution was added according to the manufacture's instruction (Cisbio Bioassays). The stop/detection solution contained Streptavidin-XL665 and Anti-pRb (Ser780) mAb-Eu Cryptate in Detection buffer (Cisbio Bioassays). Plates were incubated at room temperature for 60 minutes, and the TR-FRET signals (ex337 nm, em665 nm/620 nm) were recorded on a PHERAstar FSX plate reader (BMG Labtech). The inhibition percentage of CDK2/Cyclin E1 or CDK1/Cyclin B1 kinase activity in presence of increasing concentrations of compounds was calculated based on the ratio of fluorescence at 665 nm to that at 620 nm. The IC50 for each compound was derived from fitting the data to the four-parameter logistic equation by Dotmatics.

In the next assay the target is CDK1/Cyclin B1 (Homo sapiens, UniProt P06493). Description: CDK1/Cyclin B1 Biochemical Assay (TR-FRET), 0.015 mM ATP. Particulars: 0.15 μM Rb (Ser780)-biotin substrate, pH7.0, 60 min preincubation, 120 min reaction, room temperature. The protocol: as §1, §2
In general terms: TR-FRET usually uses a lanthanide donor and a delayed reading to cut background.

SMILES strings stand for the structures.

These results are taken from patent US20260297080A1, “BICYCLIC COMPOUNDS AS CDK INHIBITORS” (BeOne Medicines I GmbH, priority 2022, published 2026).

CDK1/Cyclin B1, sequence (P06493 whole entry): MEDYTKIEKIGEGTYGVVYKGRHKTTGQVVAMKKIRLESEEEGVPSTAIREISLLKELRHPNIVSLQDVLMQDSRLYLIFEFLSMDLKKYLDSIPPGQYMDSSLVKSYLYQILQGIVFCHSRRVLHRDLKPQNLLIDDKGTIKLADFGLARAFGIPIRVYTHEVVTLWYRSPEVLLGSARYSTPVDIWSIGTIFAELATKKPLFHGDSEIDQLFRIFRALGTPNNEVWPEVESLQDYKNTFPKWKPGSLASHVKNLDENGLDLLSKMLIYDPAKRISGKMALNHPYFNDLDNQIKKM
CDK1/Cyclin B1, sequence (P14635 whole entry partner): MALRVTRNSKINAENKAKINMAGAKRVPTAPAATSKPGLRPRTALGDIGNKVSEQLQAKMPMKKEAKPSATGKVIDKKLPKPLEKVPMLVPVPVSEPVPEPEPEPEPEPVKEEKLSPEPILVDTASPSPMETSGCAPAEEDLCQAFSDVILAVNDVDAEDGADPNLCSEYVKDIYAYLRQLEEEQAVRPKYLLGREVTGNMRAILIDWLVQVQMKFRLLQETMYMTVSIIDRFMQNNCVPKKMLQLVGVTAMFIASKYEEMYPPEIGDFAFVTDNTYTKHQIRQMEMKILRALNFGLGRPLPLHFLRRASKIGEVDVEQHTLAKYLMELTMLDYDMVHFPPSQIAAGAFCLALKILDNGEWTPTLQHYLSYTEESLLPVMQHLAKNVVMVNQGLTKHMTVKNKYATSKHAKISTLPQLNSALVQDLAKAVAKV

By IC50 is commonly meant the point on the concentration scale where inhibition reaches its midpoint. Turning to `CC(C)NC(=O)OC1CC(c2cc(Nc3ccc4c(c3)CNS4(=O)=O)n[nH]2)C1` (stereo not drawn) [Example 173, 3-(3-((1,1-dioxido-2,3-dihydrobenzo[d]isothiazol-5-yl)amino)-1H-pyrazol-5-yl)cyclobutyl isopropylcarbamate], the IC50 against CDK2/Cyclin E1 amounted to 6.7 nM; on CDK1/Cyclin B1 it was 73 nM.

On to `CC(C)NC(=O)O[C@H]1CC[C@@H](c2cc(Nc3ccc4c(c3F)C(C)(C)NS4(=O)=O)n[nH]2)C1` (relative stereo) [Example 55, cis-3-(3-((4-fluoro-3,3-dimethyl-1,1-dioxido-2,3-dihydrobenzo[d]isothiazol-5-yl)amino)-1H-pyrazol-5-yl)cyclopentyl isopropylcarbamate], for which the IC50 against CDK2/Cyclin E1 was 71 nM; at CDK1/Cyclin B1, 1890 nM.

Take `CN1c2ccc(Nc3cc([C@@H]4CC[C@H](OC(=O)NCC5COC5)C4)[nH]n3)cc2CS1(=O)=O` (relative stereo) [Example 237, cis-3-(3-((1-methyl-2,2-dioxido-1,3-dihydrobenzo[c]isothiazol-5-yl)amino)-1H-pyrazol-5-yl)cyclopentyl(oxetan-3-ylmethyl)carbamate]: the IC50 against CDK2/Cyclin E1 worked out at 46 nM; against CDK1/Cyclin B1 it was 435 nM.

`CN1Cc2c(ccc(Nc3cc([C@@H]4CC[C@H](OC(=O)NC5CCC(O)CC5)C4)[nH]n3)c2F)S1(=O)=O` (single isomer, unassigned) [Example 167, cis-3-(3-((4-fluoro-2-methyl-1,1-dioxido-2,3-dihydrobenzo[d]isothiazol-5-yl)amino)-1H-pyrazol-5-yl)cyclopentyl(4-hydroxycyclohexyl)carbamate]: the IC50 at CDK2/Cyclin E1 is 9.2 nM; against CDK1/Cyclin B1, 514 nM.

For `CCCNC(=O)O[C@H]1CC[C@@H](c2cc(Nc3ccc4c(c3)NS(=O)(=O)C4)n[nH]2)C1` (relative stereo) [Example 305, cis-3-(3-((2,2-dioxido-1,3-dihydrobenzo[c]isothiazol-6-yl)amino)-1H-pyrazol-5-yl)cyclopentyl propylcarbamate], the IC50 at CDK2/Cyclin E1 stood at 6.5 nM; against CDK1/Cyclin B1 it was 58 nM.

Consider `CCCNC(=O)O[C@@H]1CC[C@H](c2cc(Nc3ccc4c(c3F)CS(=O)(=O)N4)n[nH]2)C1` (single isomer, unassigned) [Example 387a], for which the IC50 was 3 nM on CDK2/Cyclin E1 and 137 nM at CDK1/Cyclin B1.

Turning to `CC[C@H](C)NC(=O)O[C@@H]1CC[C@H](c2cc(Nc3ccc4c(c3F)CS(=O)(=O)N4)n[nH]2)C1` (single isomer, unassigned) [Example 383a], the IC50 was 1.7 nM at CDK2/Cyclin E1 and 45 nM against CDK1/Cyclin B1.

Regarding `O=C(O[C@H]1CC[C@@H](c2cc(Nc3ccc4c(c3F)CS(=O)(=O)N4)n[nH]2)C1)N1CCOCC1` (relative stereo) [Example 415, cis-3-(3-((4-fluoro-2,2-dioxido-1,3-dihydrobenzo[c]isothiazol-5-yl)amino)-1H-pyrazol-5-yl)cyclopentyl morpholine-4-carboxylate], the results for the IC50 at CDK2/Cyclin E1 and against CDK1/Cyclin B1 were 26 nM and 700 nM, respectively.

In the case of `CC(C)NC(=O)O[C@H]1CC[C@@H](c2cc(Nc3ccc4c(c3F)CN(CCCO)S4(=O)=O)n[nH]2)C1` (relative stereo) [Example 113, cis-3-(3-((4-fluoro-2-(3-hydroxypropyl)-1,1-dioxido-2,3-dihydrobenzo[d]isothiazol-5-yl)amino)-1H-pyrazol-5-yl)cyclopentyl isopropylcarbamate], the IC50 was determined as 3.6 nM at CDK2/Cyclin E1 and 288 nM against CDK1/Cyclin B1.

In the case of `CC1(NC(=O)O[C@H]2CC[C@@H](c3cc(Nc4ccc5c(c4F)CS(=O)(=O)N5CCO)n[nH]3)C2)COC1` (relative stereo) [Example 390, cis-3-(3-((4-fluoro-1-(2-hydroxyethyl)-2,2-dioxido-1,3-dihydrobenzo[c]isothiazol-5-yl)amino)-1H-pyrazol-5-yl)cyclopentyl(3-methyloxetan-3-yl)carbamate], the concentration for half-maximal inhibition (IC50) at CDK2/Cyclin E1 turned out to be 2.5 nM; against CDK1/Cyclin B1, 236 nM.

Turning to `CCCNC(=O)O[C@H]1CC[C@@H](c2cc(Nc3cc4c(cc3F)NS(=O)(=O)C4)n[nH]2)C1` (relative stereo) [Example 293, cis-3-(3-((6-fluoro-2,2-dioxido-1,3-dihydrobenzo[c]isothiazol-5-yl)amino)-1H-pyrazol-5-yl)cyclopentyl propylcarbamate], the figures for the IC50 on CDK2/Cyclin E1 and against CDK1/Cyclin B1 were 64 nM and 1120 nM, respectively.

Turning to `CC(C)NC(=O)O[C@H]1CC[C@@H](c2cc(Nc3ccc4c(c3F)CN(C3CCC(=O)NC3)S4(=O)=O)n[nH]2)C1` (relative stereo) [Example 82, cis-3-(3-((4-fluoro-1,1-dioxido-2-(6-oxopiperidin-3-yl)-2,3-dihydrobenzo[d]isothiazol-5-yl)amino)-1H-pyrazol-5-yl)cyclopentyl isopropylcarbamate], the IC50 against CDK2/Cyclin E1 turned out to be 10 nM; on CDK1/Cyclin B1, 381 nM.

As to `COCC(C)(C)NC(=O)O[C@H]1CC[C@@H](c2cc(Nc3ccc4c(c3F)CS(=O)(=O)N4C3CC3)n[nH]2)C1` (relative stereo) [Example 401, cis-3-(3-((1-cyclopropyl-4-fluoro-2,2-dioxido-1,3-dihydrobenzo[c]isothiazol-5-yl)amino)-1H-pyrazol-5-yl)cyclopentyl(1-methoxy-2-methylpropan-2-yl)carbamate], the IC50 stood at 2.1 nM on CDK2/Cyclin E1 and 105 nM at CDK1/Cyclin B1.

With `CCCNC(=O)O[C@H]1CC[C@@H](c2cc(Nc3ccc4c(c3)CCS(=O)(=O)N4)n[nH]2)C1` (relative stereo) [Example 247, cis-3-(3-((2,2-dioxido-3,4-dihydro-1H-benzo[c][1,2]thiazin-6-yl)amino)-1H-pyrazol-5-yl)cyclopentyl propylcarbamate], the IC50 against CDK2/Cyclin E1 came out at 9.7 nM; at CDK1/Cyclin B1, 79 nM.

With `CC(C)NC(=O)O[C@H]1CC[C@@H](c2cc(Nc3cc4c(cc3F)N(CCO)S(=O)(=O)C4)n[nH]2)C1` (single isomer, unassigned) [Example 296a, cis-3-(3-((6-fluoro-1-(2-hydroxyethyl)-2,2-dioxido-1,3-dihydrobenzo[c]isothiazol-5-yl)amino)-1H-pyrazol-5-yl)cyclopentyl isopropylcarbamate], the IC50 against CDK2/Cyclin E1 is 15 nM; against CDK1/Cyclin B1, 800 nM.

For `CC(=O)N1CC(CN2c3ccc(Nc4cc([C@@H]5CC[C@H](OC(=O)NC(C)C)C5)[nH]n4)cc3CS2(=O)=O)C1` (relative stereo) [Example 214, cis-3-(3-((1-((1-acetylazetidin-3-yl)methyl)-2,2-dioxido-1,3-dihydrobenzo[c]isothiazol-5-yl)amino)-1H-pyrazol-5-yl)cyclopentyl isopropylcarbamate], the IC50 against CDK2/Cyclin E1 stood at 1.7 nM; against CDK1/Cyclin B1, 44 nM.

For the compound `COc1cc2c(cc1Nc1cc([C@@H]3CC[C@H](OC(=O)NC(C)C)C3)[nH]n1)S(=O)(=O)NC2` (relative stereo) [Example 182, cis-3-(3-((5-methoxy-1,1-dioxido-2,3-dihydrobenzo[d]isothiazol-6-yl)amino)-1H-pyrazol-5-yl)cyclopentyl isopropylcarbamate], the values for the IC50 on CDK2/Cyclin E1 and on CDK1/Cyclin B1 were 279 nM and 5580 nM, respectively.

As to `[2H]C([2H])([2H])N1c2c(F)cc(Nc3cc([C@@H]4CC[C@H](OC(=O)NC5(C)CC5)C4)[nH]n3)cc2CS1(=O)=O` (single isomer, unassigned) [Example 291a, cis-3-(3-((7-fluoro-1-(methyl-d3)-2,2-dioxido-1,3-dihydrobenzo[c]isothiazol-5-yl)amino)-1H-pyrazol-5-yl)cyclopentyl(1-methylcyclopropyl)carbamate], the IC50 at CDK2/Cyclin E1 is 2 nM; against CDK1/Cyclin B1 it was 76 nM.

As for `CC(C)NC(=O)O[C@H]1CC[C@@H](c2cc(Nc3ccc4c(c3)C(=O)NS4(=O)=O)n[nH]2)C1` (relative stereo) [Example 17, cis-3-(3-((1,1-dioxido-3-oxo-2,3-dihydrobenzo[d]isothiazol-5-yl)amino)-1H-pyrazol-5-yl)cyclopentyl isopropylcarbamate], the IC50 on CDK2/Cyclin E1 worked out at 11.8 nM; against CDK1/Cyclin B1, 470 nM.

Turning to `CC1(NC(=O)O[C@H]2CC[C@@H](c3cc(Nc4ccc5c(c4F)CN(C4CC4)S5(=O)=O)n[nH]3)C2)CC1` (single isomer, unassigned) [Example 119a, cis-3-(3-((2-cyclopropyl-4-fluoro-1,1-dioxido-2,3-dihydrobenzo[d]isothiazol-5-yl)amino)-1H-pyrazol-5-yl)cyclopentyl(1-methylcyclopropyl)carbamate], the figures for the concentration for half-maximal inhibition (IC50) on CDK2/Cyclin E1 and at CDK1/Cyclin B1 were 2.5 nM and 216 nM, respectively.

As to `[2H]C([2H])([2H])N1Cc2cc(Nc3cc([C@@H]4CC[C@H](OC(=O)NC(C)C)C4)[nH]n3)c(F)cc2S1(=O)=O` (relative stereo) [Example 46, cis-3-(3-((6-fluoro-2-(methyl-d3)-1,1-dioxido-2,3-dihydrobenzo[d]isothiazol-5-yl)amino)-1H-pyrazol-5-yl)cyclopentyl isopropylcarbamate], the values for the IC50 at CDK2/Cyclin E1 and against CDK1/Cyclin B1 were 230 nM and 4420 nM, respectively.
